Results reported in article PMC2010042, “Effects of pretreatment with phenobarbitone and phenytoin on the pharmacokinetics and toxicity of phenytoin on the pharmacokinetics and toxicity of misonidazole in mice” (British Journal of Cancer, 1979).
Where a name gives a salt, the structure may show the parent alone.

What was measured:
[1] = tested on: man; settings: ref Dische et al., 1977; Urtasun et al., 1978; cited from earlier work
[2] = tested on: BALB/c male mice; settings: MIS single i.p. 1.117-2.5 g/kg
[3] = 1 g/kg; ref Brown et al., 1979; cited from earlier work
[4] = tested on: body temperature; settings: 1 g/kg MIS; all 3 pretreated groups (saline, phenobarbitone, phenytoin)
[5] = Pharmacokinetics of MIS and Ro 05-9963 in plasma/blood, brain and tumour by HPLC after 1 g/kg MIS i.p.; settings: for concentrations in whole blood compared with plasma: control studies
[6] = preliminary studies in man
[7] = tested on: hypoxic tumour cells; set-up: method as in Brown et al., 1979; settings: at equal tumour concentrations; ref Brown et al., 1979; cited from earlier work
[8] = in vivo; settings: male, BALB/c, mouse, ip, LD50(7d) (95% confidence limits), MIS single i.p.
[9] = set-up: method as in Adams et al., 1976; settings: ref Adams et al., 1976; cited from earlier work
[10] = tested on: mice; set-up: method as in Brown et al., 1979; settings: ref Brown et al., 1979; cited from earlier work
[11] = Pharmacokinetics of MIS and Ro 05-9963 after 1 g/kg MIS i.p. in B10 mice bearing the MC6B tumour; settings: enzyme inducers; B10 strain
[12] = Body weight during pretreatment regime
[13] = tested on: microsomal drug-metabolizing enzymes; assay: Pentobarbitone sleeping-time after pretreatment (index of microsomal enzyme induction); assay type: in vivo, tumour-free BALB/c mice; settings: 60 mg/kg pentobarbitone i.p. on Day 9 after pretreatment regime
[14] = tested on: MC6B and EMT6 tumours; assay: Tumour volume in pretreated mice; assay type: in vivo; settings: usually not significant (P > 0.05)
[15] = Approximate acute LD50 of single doses of phenobarbitone and phenytoin; settings: male, BALB/c, mouse, in vivo
[16] = tested on: liver weight; assay: Liver/body weight ratio after pretreatment; assay type: in vivo, tumour-free BALB/c mice; settings: Day 9 after pretreatment regime
[17] = phenobarbitone or phenytoin pretreatment (Discussion)

COCC(O)Cn1ccnc1[N+](=O)[O-] (stereo not shown) [MIS, 1-(2-nitroimidazol-1-yl)-3-meth-oxypropan-22-ol]
peripheral neuropathy in man [1]: dose-limiting toxicity | time of deaths after treatment [2]: 3 to 4 days | t1/2 of MIS after bilateral kidney ligation [3]: prolonged after bilateral kidney ligation | change in body temperature after MIS [4]: marked decrease in temperature | reduction of apparent elimination half-life (t1/2) for MIS ([5]; 1 g/kg MIS i.p., phenobarbitone or phenytoin pretreatment vs control, plasma, brain and tumour): 20-67% | decrease of area under the curve (AUC) for MIS ([5]; 1 g/kg MIS i.p., phenobarbitone or phenytoin pretreatment, plasma, brain and tumour): 23-49% | concentrations in whole blood compared with plasma [5]: identical | Kp ([5]; male, BALB/c, mouse, tumour and brain / plasma, ip, 1 g/kg): ~0.5 | effect of pretreatment on peak MIS concentration ([5]; phenobarbitone and phenytoin pretreatment, plasma, brain or tumour): did not alter | decrease of blood (or plasma) MIS AUC [5, 17]: 25- 60% | shortening of apparent t1/2 for MIS elimination from blood or plasma [5, 17]: 35-60% | MIS t1/2 and AUC with phenytoin therapy [6]: both reduced | radiosensitizing efficiency of MIS and Ro 05-9963 [7]: equally good radiosensitizers | LD50 at 7 days ([8]; pretreatment phenobarbitone): 1900 mg/kg | LD50 at 7 days ([8]; pretreatment phenytoin): 1780 mg/kg | LD50 at 7 days ([8]; pretreatment saline (control)): 1540 mg/kg

O=[N+]([O-])c1nccn1CC(O)CO (stereo not shown) [Ro 05-9963, 1-(2-nitroimidazol-1-yl)-2,3-propandiol]
lipophilicity compared with MIS [9]: considerably less lipophilic than MIS | LD50 compared with MIS [10]: higher LD50 than MIS | concentrations in whole blood compared with plasma [5]: identical | increase of blood (or plasma) AUC for metabolite Ro 05-9963 ([5]; enzyme inducers, BALB/c mice): 10-60% | radiosensitizing efficiency of MIS and Ro 05-9963 [7]: equally good radiosensitizers | increase of blood (or plasma) AUC for metabolite Ro 05-9963 [11]: 100%

CCC1(c2ccccc2)C(=O)NC(=O)NC1=O [phenobarbitone]
initial weight loss during pretreatment regime ([12]; normally completely regained by Day 9): up to 10% | pentobarbitone sleeping-time, % of untreated control [13]: 36% | pentobarbitone sleeping-time, mean [13]: 26 min | tumour volumes lower than the saline controls [14]: up to 10%

O=C1NC(=O)C(c2ccccc2)(c2ccccc2)N1 [phenytoin, 5.5-diphenylhydantoin, sodium salt]
LD50 [15]: 200 to 240 mg/kg | weight loss during pretreatment ([12]; mouse, in vivo): little or no weight loss | pentobarbitone sleeping-time, % of untreated control [13]: 30% | tumour volumes lower than the saline controls [14]: up to 10% | liver wt/body wt, % of untreated control [16]: 124%
